Laboratory results published in US11427548B2 (Arvinas Operations, Inc., priority 2015, dated 2022).
Read-outs that look alike come from different tables or passages of the source.

What was measured:
Androgen Receptor [1] = molecular target: T1, Androgen Receptor (Homo sapiens, UniProt P10275+P40337, T878A); experiment: Androgen Receptor ELISA assay (PathScan AR ELISA) in LNCaP cells: AR degradation, Dmax and DC50; type: cell-based
T1 construct: Compounds have been evaluated in this assay in LNCaP and/or VCaP cells utilizing similar protocols; endogenous in cells; host or cells: LNCaP cells
T1 sequence (P10275 whole entry T878A): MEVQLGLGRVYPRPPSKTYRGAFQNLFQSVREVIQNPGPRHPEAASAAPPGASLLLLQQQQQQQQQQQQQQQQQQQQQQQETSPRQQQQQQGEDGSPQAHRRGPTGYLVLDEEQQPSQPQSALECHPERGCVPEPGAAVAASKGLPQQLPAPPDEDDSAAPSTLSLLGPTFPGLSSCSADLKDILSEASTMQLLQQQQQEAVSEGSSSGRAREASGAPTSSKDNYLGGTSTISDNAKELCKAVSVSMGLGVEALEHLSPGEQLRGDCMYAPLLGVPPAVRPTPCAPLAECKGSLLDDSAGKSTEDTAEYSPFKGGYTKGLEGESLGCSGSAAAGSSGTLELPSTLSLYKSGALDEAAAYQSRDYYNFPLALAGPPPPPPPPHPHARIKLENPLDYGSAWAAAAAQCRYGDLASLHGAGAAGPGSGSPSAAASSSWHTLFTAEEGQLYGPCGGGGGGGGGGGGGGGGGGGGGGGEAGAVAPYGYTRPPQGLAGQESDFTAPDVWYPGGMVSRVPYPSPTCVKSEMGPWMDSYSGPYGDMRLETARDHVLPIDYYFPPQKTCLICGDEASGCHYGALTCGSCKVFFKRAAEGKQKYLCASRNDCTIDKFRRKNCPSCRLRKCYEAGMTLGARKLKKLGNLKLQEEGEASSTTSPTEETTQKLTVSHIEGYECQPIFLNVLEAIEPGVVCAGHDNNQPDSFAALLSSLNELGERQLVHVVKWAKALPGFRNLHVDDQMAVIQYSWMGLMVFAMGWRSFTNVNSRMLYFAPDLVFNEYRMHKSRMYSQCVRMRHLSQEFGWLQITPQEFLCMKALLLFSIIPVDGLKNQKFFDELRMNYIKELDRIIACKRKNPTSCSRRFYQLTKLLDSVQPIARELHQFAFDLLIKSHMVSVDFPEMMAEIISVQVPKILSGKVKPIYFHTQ
T1 sequence (P40337 whole entry): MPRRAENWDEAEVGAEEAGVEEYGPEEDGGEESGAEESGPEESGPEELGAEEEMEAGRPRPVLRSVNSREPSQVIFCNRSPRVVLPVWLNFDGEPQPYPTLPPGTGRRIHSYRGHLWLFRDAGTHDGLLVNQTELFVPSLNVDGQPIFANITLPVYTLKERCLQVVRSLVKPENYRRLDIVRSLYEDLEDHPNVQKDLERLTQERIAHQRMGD
T1 sequence (Q15369 whole entry partner): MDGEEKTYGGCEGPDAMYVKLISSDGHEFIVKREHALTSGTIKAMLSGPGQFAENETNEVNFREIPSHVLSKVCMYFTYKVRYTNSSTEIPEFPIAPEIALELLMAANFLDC
T1 sequence (Q15370 whole entry partner): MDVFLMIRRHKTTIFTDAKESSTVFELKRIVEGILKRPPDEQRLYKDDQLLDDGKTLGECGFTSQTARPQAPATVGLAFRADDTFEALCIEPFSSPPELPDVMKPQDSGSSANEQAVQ

[2] = PROTAC subcutaneous pharmacokinetics in CD-1 mice; type: in vivo; conditions: male, plasma, CD-1 Mouse, 10 mg/kg SC dose; for AUC(0-t): read-out: Plasma Exposure AUC0-24; for Cmax: read-out: Plasma Exposure Cmax
Method: (§1) 9. PROTAC Prodrug Oral Pharmacokinetics and PROTAC Subcutaneous Phamacokinetics.
(§2) Representative Pharmacokinetic Procedure
(§3) Male CD-1 mice (6-8 weeks old, weighing 20-30 g, 3 per study) with free access to food and water were administered with the test article at 10 mg/kg either by oral gavage or sub-cutaneous injection in the formulation specified in tables 20 and 21, at 10 mL/kg.
(§4) Approximately 0.04 mL blood samples were collected from the dorsal metatarsal vein serially at 0.25, 0.5, 1, 2, 4, 8 and 24 h timepoints; heparin was used as the anticoagulant. The samples were centrifuged at 4000 g for 5 min at 4° C. then stored at −75° C. prior to analysis.
(§5) The plasma samples were analysed via an LC/MS/MS method quantitating for unchanged, administered test article, and/or a derivative species as appropriate. WinNonlin (Phoenix™) was used for the pharmacokinetic calculations and modeling, to generate parameters such as Cmax and AUC.

Androgen Receptor [3] = molecular target: T2, Androgen Receptor (Homo sapiens, UniProt P10275); experiment: Androgen Receptor ELISA assay (PathScan AR ELISA) in VCaP cells: AR degradation, Dmax and DC50; type: cell-based; conditions: for Dmax: VCaP, read-out: VCaP Dmax (%); for DC50: read-out: VCaP DC50
T2 construct: endogenous in cells; host or cells: VCaP cells
T2 sequence (P10275 1-920): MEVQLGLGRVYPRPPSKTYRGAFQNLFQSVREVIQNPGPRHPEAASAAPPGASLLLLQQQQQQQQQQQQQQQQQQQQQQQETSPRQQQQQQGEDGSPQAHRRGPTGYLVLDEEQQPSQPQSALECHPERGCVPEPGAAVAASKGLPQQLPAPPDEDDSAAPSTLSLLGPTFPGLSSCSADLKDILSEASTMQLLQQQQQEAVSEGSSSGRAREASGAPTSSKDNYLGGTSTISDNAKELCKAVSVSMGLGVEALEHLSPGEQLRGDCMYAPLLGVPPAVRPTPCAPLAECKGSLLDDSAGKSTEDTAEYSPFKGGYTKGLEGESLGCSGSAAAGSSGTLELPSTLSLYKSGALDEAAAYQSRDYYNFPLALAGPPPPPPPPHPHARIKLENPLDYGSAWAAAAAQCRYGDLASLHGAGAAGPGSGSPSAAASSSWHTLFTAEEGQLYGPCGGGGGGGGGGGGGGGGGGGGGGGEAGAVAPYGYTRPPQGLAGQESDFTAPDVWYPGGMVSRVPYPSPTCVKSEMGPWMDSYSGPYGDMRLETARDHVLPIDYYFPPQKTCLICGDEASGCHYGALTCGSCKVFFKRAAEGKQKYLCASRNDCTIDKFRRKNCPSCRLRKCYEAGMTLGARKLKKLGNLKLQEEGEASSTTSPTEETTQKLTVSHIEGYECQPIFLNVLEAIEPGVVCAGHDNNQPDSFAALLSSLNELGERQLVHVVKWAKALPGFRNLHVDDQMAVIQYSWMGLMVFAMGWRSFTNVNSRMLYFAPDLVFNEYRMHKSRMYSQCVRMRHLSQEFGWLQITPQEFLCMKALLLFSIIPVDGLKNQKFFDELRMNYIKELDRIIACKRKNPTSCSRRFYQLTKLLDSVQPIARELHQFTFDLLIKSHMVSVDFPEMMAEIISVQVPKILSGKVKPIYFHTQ
Summary of the method: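 VCaP cells, 30,000/well, grown ≥3 days in phenol red-free RPMI with 5% charcoal-stripped FBS; compound added in 0.1% DMSO with 0.1 nM R1881, 7 half-log doses, 24 h. Lysate AR quantified by PathScan sandwich ELISA, HRP/TMB read at 450 nm, giving DC50 and Dmax.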

VCaP cells = experiment: VCaP cell proliferation assay (Cell Titer Glo), GI50; type: cell-based; conditions: for GI50: Homo sapiens, VCaP cells, 0.1 nM R1881, Table 37, read-out: GI50, Inhibition of VCaP Proliferation
Method: 2. VCaP Cell Proliferation Assay.
VCaP cells are plated 7,500/well 200 μL/well in VCaP assay medium [Phenol red free RPMI (Gibco Cat #11835-030); 5% Charcoal Stripped (Dextran treated) FBS (Omega Scientific, Cat #FB-04); Pen/Strep Life Technologies (Gibco Cat #: 10378-016); 0.1 nM R1881 (Sigma, Cat #R0908) is added upon the start of the assay, not during initial plating of the cells).
The assay was performed as follows: the cells are grown for a minimum of 3 days to deplete androgens; dosing of PROTACs and R1881 is performed as for AR ELISA; the baseline reading of Cell Titer Glo can be performed on day of dosing.
VCaP cells with 0.1 nM R1881 will double once in 4 days. Gently draw off 110 μL of media so as not to disturb the adherent cells; add 110 μL of CTG; incubate with slow shaking for 20 minutes; and read luminescence on a plate reader.

[4] = PROTAC prodrug oral pharmacokinetics in CD-1 mice; type: in vivo; conditions: male, mouse, plasma, 10 mg/kg, 10 mpk PO; for AUC: read-out: Plasma Exposure Prodrug AUC; for Cmax: read-out: Plasma Exposure Prodrug Cmax
Method: as §1, §2, §3, §4, §5

VCaP xenograft = experiment: Tumor growth inhibition in VCaP xenograft model; type: in vivo; conditions: VCaP cells s.c. in castrated CB17 scid mice; enzalutamide PO, QD, 30 mpk; Example 163 IP, QD, 30, 10 and 3 mpk
Text: FIG. 6. Tumor growth inhibition in VCaP xenograft model. VCaP cells were implanted into CB17 scid mice subcutaneously. Once the tumors were palpable, the mice were castrated, leading to temporary tumor stasis.
7. Tumor Growth Inhibition in VCaP Xenograft Model.
VCaP cells were implanted into CB17 scid mice subcutaneously. Once the tumors were palpable, the mice were castrated, leading to temporary tumor stasis.

[5] = highest percentage of Androgen Receptor degradation observed, VCaP cells (Table 32)
[6] = concentration that caused 50% Androgen Receptor degradation, VCaP cells (Table 32)
[7] = vehicle ESP-4, prodrug measured
[8] = vehicle ESD-4, prodrug measured

Row | Compound | GI50 (VCaP cells) | Dmax (Androgen Receptor [3]; [5]) | AUC [4, 7] | Cmax [4, 7] | DC50 (Androgen Receptor [3]; VCaP cells, Table 35) | Dmax (Androgen Receptor [3]; VCaP cells, Table 35) | further results
1 | Cc1ncsc1-c1ccc(CNC(=O)[C@@H]2C[C@@H](O)CN2C(=O)[C@@H](NC(=O)COCCCOCCN2CCC(c3ccc(N4C(=S)N(c5ccc(C#N)c(C(F)(F)F)c5)C(=O)C4(C)C)cc3)CC2)C(C)(C)C)cc1 [Example 80, (2S,4R)-1-((S)-2-(2-(3-(2-(4-(4-(3-(4-cyano-3-(trifluoromethyl)phenyl)-5,5-dimethyl-4-oxo-2-thioxoimidazolidin-1-yl)phenyl)piperidin-1-yl)ethoxy)propoxy)acetamido)-3,3-dimethylbutanoyl)-4-hydroxy-N-(4-(4-methylthiazol-5-yl)benzyl)pyrrolidine-2-carboxamide] | – | – | – | – | – | – | DC50 (Androgen Receptor [1]; concentration that caused 50% Androgen Receptor degradation): > 501 nM; Dmax (Androgen Receptor [1]; highest percentage of Androgen Receptor degradation observed): 51 to 70%; AUC(0-t) ([2]; vehicle ELP-1): 2530 ng·h/mL; Cmax ([2]; vehicle ELP-1): 180 ng/mL; Dmax (Androgen Receptor [3]): 26 to 50%
2 | CC(C)(C)[C@H](NC(=O)COCCCCCOc1ccc(C(=O)N[C@H]2C(C)(C)[C@H](Oc3ccc(C#N)c(Cl)c3)C2(C)C)cc1)C(=O)N1C[C@H](O)C[C@H]1C(=O)NCc1ccc(-c2cncs2)cc1 [Example 150, (2S,4R)-1-[(2S)-3,3-dimethyl-2-(2-{[5-(4-{[trans-3-(3-chloro-4-cyanophenoxy)-2,2,4,4-tetramethylcyclobutyl]carbamoyl}phen-oxy)pentyl]oxy}acetamido)butanoyl]-4-hydroxy-N-{[4-(1,3-thiazol-5-yl)phenyl]methyl}pyrrolidine-2-carboxamide] | ≤ 50 nM | > 71% | – | – | – | – | AUC(0-t) ([2]; vehicle ESD-1): 40200 ng·h/mL; Cmax ([2]; vehicle ESD-1): 2750 ng/mL; DC50 (Androgen Receptor [3]; [6]): < 50 nM
3 | Cc1ncsc1-c1ccc([C@H](C)NC(=O)[C@@H]2C[C@@H](O)CN2C(=O)[C@@H](NC(=O)COCCCCCNc2ccc(C(=O)N[C@H]3C(C)(C)[C@H](Oc4ccc(C#N)c(Cl)c4)C3(C)C)cc2)C(C)(C)C)cc1 [Example 174, (2S,4R)-1-[(2S)-3,3-dimethyl-2-[2-({5-[(4-{[trans-3-(3-chloro-4-cyanophenoxy)-2,2,4,4-tetramethylcyclobutyl]carbamoyl}phenyl)amino]pentyl}oxy)acetamido]butanoyl]-4-hydroxy-N-[(1S)-1-[4-(4-methyl-1,3-thiazol-5-yl)phenyl]ethyl]pyrrolidine-2-carboxamide] | ≤ 50 nM | > 71% | – | – | – | – | AUC(0-t) ([2]; vehicle ESD-1): 35100 ng·h/mL; Cmax ([2]; vehicle ESD-1): 1900 ng/mL; DC50 (Androgen Receptor [3]; [6]): < 50 nM
4 | Cc1ncsc1-c1ccc(CNC(=O)[C@@H]2C[C@@H](O)CN2C(=O)[C@@H](NC(=O)COCCOc2ccc(-c3ccc(C(=O)N[C@H]4C(C)(C)[C@H](Oc5ccc(C#N)c(Cl)c5)C4(C)C)cc3)cc2)C(C)(C)C)cc1 [Example 182, (2S,4R)-1-[(2S)-3,3-dimethyl-2-(2-{2-[4-(4-{[trans-3-(3-chloro-4-cyanophenoxy)-2,2,4,4-tetramethylcyclobutyl]carbamoyl}phenyl)phenoxy]ethoxy}acetamido)butanoyl]-4-hydroxy-N-{[4-(4-methyl-1,3-thiazol-5-yl)phenyl]methyl}pyrrolidine-2-carboxamide] | ≤ 50 nM | > 71% | – | – | – | – | AUC(0-t) ([2]; vehicle ELP-1): 29200 ng·h/mL; Cmax ([2]; vehicle ELP-1): 1530 ng/mL
5 | CNC(=O)c1ccc(N2C(=S)N(c3ccc(C#N)c(C(F)(F)F)c3)C(=O)C2(C)C)cc1F [enzalutamide, reference compound] | – | – | – | – | – | – | anti-proliferative activity (VCaP cells; LNCap and VCaP cell systems, increasing concentrations of AR agonist R1881 and cells containing the AR F876L mutation): inactive; Tumor growth inhibition (VCaP xenograft): Tumor growth inhibition was observed

Continued, in another order:

Row | GI50 (VCaP cells) | Dmax (Androgen Receptor [3]; [5]) | AUC [4, 7] | Cmax [4, 7] | DC50 (Androgen Receptor [3]; VCaP cells, Table 35) | Dmax (Androgen Receptor [3]; VCaP cells, Table 35) | Compound | further results
6 | – | – | 49 ng·h/mL | 12 ng/mL | – | – | Cc1ncsc1-c1ccc([C@H](C)NC(=O)[C@@H]2C[C@@H](OC(=O)[C@@H](N)C(C)C)CN2C(=O)[C@@H](NC(=O)COCCCCCNc2ccc(C(=O)N[C@H]3C(C)(C)[C@H](Oc4ccc(C#N)c(Cl)c4)C3(C)C)cc2)C(C)(C)C)cc1 [Example 463] | –
7 | – | – | 118 ng·h/mL | 48 ng/mL | > 501 nM | > 71% | Cc1ncsc1-c1ccc([C@H](C)NC(=O)[C@@H]2C[C@@H](O)CN2C(=O)[C@@H](NC(=O)COCCCCCNc2ccc(C(=O)N[C@H]3C(C)(C)[C@H](Oc4ccc(C#N)c(C(F)(F)F)n4)C3(C)C)cc2)C(C)(C)C)cc1 [Example 464] | –
8 | – | – | – | – | < 50 nM | > 71% | CC(=O)O[C@@H]1C[C@@H](C(=O)N[C@@H](C)c2ccc(-c3scnc3C)cc2)N(C(=O)[C@@H](NC(=O)COCCCCCNc2ccc(C(=O)N[C@H]3C(C)(C)[C@H](Oc4ccc(C#N)c(Cl)c4)C3(C)C)cc2)C(C)(C)C)C1 [Example 469] | AUC [4, 8]: 353 ng·h/mL; Cmax [4, 8]: 181 ng/mL
9 | – | – | 469 ng·h/mL | 346 ng/mL | < 50 nM | > 71% | Cc1ncsc1-c1ccc([C@H](CN(C)C)NC(=O)[C@@H]2C[C@@H](O)CN2C(=O)[C@@H](NC(=O)COCCCCCOc2ccc(C(=O)N[C@H]3C(C)(C)[C@H](Oc4ccc(C#N)c(Cl)c4)C3(C)C)cc2)C(C)(C)C)cc1 [Example 470] | –
